Reference: patent publication US9439882B2, “Compounds and compositions for the treatment of cancer” (PROMETIC BIOSCIENCES, INC., priority 2010, dated 2016)

What was measured:
HK-2 cells = test: TGF-β induced epithelial to mesenchymal transition in HK-2 cells (real-time PCR of E-cadherin, CTGF, collagen 1); format: cell-based, human; settings: sodium decanoate and Compound I at 0.5 mM; for TGF-β induced EMT: HK-2 cells; for CTGF transcript expression / collagen 1 transcript expression: TGF-β-stimulated cells, 24 h, normalized to GAPDH; for basal expression of CTGF / basal expression of collagen 1: compound alone, no TGF-β
Method: (§1) FIG. 20 is a bar graph showing the effect of Compound XVII on E-cadherin in normal HK-2 cells and in TGF-β induced EMT cells. Real-time PCR using human E-cadherin TaqMan® Gene Expression Assay normalized to human GAPDH endogenous control; reference is TGF-δ-treated cells 24 h (RQ=1). *means p<0.05, and ** means p<0.01 (t-test).
as §1, with “FIG. 21” for “FIG. 20”, “on CTGF” for “on E-cadherin”, “human CTGH” for “human E-cadherin”, “is TGF-β-treated” for “is TGF-δ-treated”
FIG. 22 is a bar graph showing the effect of Compound XVII on collagen 1 in normal HK-2 cells and in TGF-β induced EMT cells. Real-time PCR using human Collagen 1 TaqMan® Gene Expression Assay normalized to human GAPDH endogenous control; reference is TGF-β-treated cells 24 h (RQ=1). ** means p<0.01 (t-test).
Real-time PCR using human CTGF TaqMan® Gene Expression Assay and Collagen 1 TaqMan® Gene Expression Assay normalized to human GAPDH endogenous control; reference is TGF-β-treated cells 24 h (RQ=1).
FIG. 24 is a bar graph showing the effect of Compound I on CTGF and collagen 1 expression in normal HK-2 cells and in TGF-β induced EMT cells. Real-time PCR using human CTGF TaqMan® Gene Expression Assay and Collagen 1α1 TaqMan® Gene Expression Assay normalized to human GAPDH endogenous control; reference is TGF-β-treated cells 24 h (RQ=1). Compound I is added at 0.5 mM.
Further analysis was undertaken to determine the effect of Compoounds on EMT. The effect of Compound XVII on TGF-β induced EMT was analyzed on human epithelial […] cells (HK-2). To assess the progression of EMT, the pro-epithelial marker E-cadherin and the mesenchymal/pro-fibrotic markers CTGF and collagen 1 were assayed by quantitative real-time PCR. To determine the efficacy of Compound XVII in inhibiting TGF-β-induced EMT, verification of the ability of TGF-β to induce EMT in HK-2 cells.

P815 mastocytoma = test: Primary P815 mastocytoma tumor growth in mice; format: in vivo
Excerpt: The syngeneic tumor P815 is a DBA/2 (H-2^d)-derived mastocytoma obtained from ATCC (TIB64). […] Mice were sacrificed around day 23 (depending on the experiment). […] Tumors were palpable, in general, 3-5 days post-inoculation.

CTGF production [1] = test: Inhibition of TGF-induced CTGF production in human mesangial cells (ELISA); format: cell-based; settings: FIG. 2
Method: (§2) The effect of selected compounds on CTGF production was undertaken in normal human dermal fibroblast (NHDF) or human mesangial cells. Cells were cultured in DMEM (0.5% FBS) with or without 10 ng/mL of TGF-β for 48 h in a humidified atmosphere of 95% air-5% carbon dioxide at 37° C. CTGF measurement in the culture medium was measured using the CTGF ELISA according to the manufacturer (Prepotech) recommendations.

CTGF production [2] = test: Inhibition of TGF-induced CTGF production in NHDF (ELISA); format: cell-based; settings: Homo sapiens, 10 ng/mL TGF-β, 48 h
Method: as §2

IL-12 production = IL-12 production in LPS-stimulated RAW264.7 cells (ELISA); format: cell-based; settings: compound 0.5 mM; 100 ng/mL LPS, 21 h
Method: The effect of selected compounds on IL-12 production was undertaken in RAW264.7 (macrophage-like) cells. RAW264.7 cells were cultured with 100 ng/mL of LPS in presence or absence of compounds for 21 h in a humidified atmosphere of 95% air-5% carbon dioxide at 37° C. IL-12 concentration in the culture medium was measured using the IL-12 ELISA according to the manufacturer (BD Biosciences) recommendations. […] Compounds have no effect on IL-12 production in the absence of LPS.

[3] = system: human prostate PC-3 tumor; test: Xenograft human prostate PC-3 tumor in mice; format: in vivo; settings: cyclophosphamide alone; p≦0.05; FIG. 15
Method: The xenogenic human prostate tumor PC-3 was obtained from ATCC (CRL1435). PC-3 cells were grown in RPMI-1640 containing 10% fetal bovine serum. At day 0, 50 μL of viable PC-3 (1.5 to 2×10^6) cells were subcutaneously injected to produce localized tumors in 6- to 8-week old male CD1 nu/nu mice. The animals were then serially monitored by manual palpation for evidence of tumor. […] Mice were sacrificed at day 56. Serial tumor volume was obtained by bi-dimensional diameter measurements with calipers, using the formula 0.4 (a×b^2) where “a” was the major tumor diameter and “b” the minor perpendicular diameter.

CT-26WT colon tumor = test: Primary colon CT-26WT tumor in mice; format: in vivo; settings: sodium decanoate oral 200 mg/kg daily; 5-fluorouracil i.p. 40 mg/kg day 6, 13, 20; Compound XV oral; FIG. 12 and 13
Method: The syngeneic tumor CT-26WT (CT-26) is a colon tumor cell line obtained from ATCC (CRL-2638). CT-26 cells were grown in RPMI containing 10% fetal bovine serum. At day 0, 50 μL of 5×10^6 viable CT-26 cells were subcutaneously injected to produce localized tumors in 6- to 8-week old mice. The animals were then serially monitored by manual palpation for evidence of tumor. […] Mice were sacrificed at day 25. Serial tumor volume was obtained by bi-dimensional diameter measurements with calipers, using the formula 0.4 (a×b^2) where “a” was the major tumor diameter and “b” the minor perpendicular diameter. Tumors were palpable, in general, 3-5 days post-inoculation.

LL/2 lung tumor = LL/2 lung tumor in mice; format: in vivo; settings: sodium decanoate oral 200 mg/kg daily; gemcitabine i.p. 50 mg/kg day 1, 8, 15, 22; FIG. 11
Excerpt: The syngeneic tumor LL/2 is a lung tumor cell line obtained from ATCC (CRL-1642). […] Mice were sacrificed at day 26. […] Tumors were palpable, in general, 3-5 days post-inoculation.

B16F10 melanoma cells = test: Primary B16F10 melanoma tumor in mice; format: in vivo; settings: C57BL/6 mice; sodium decanoate 100 mg/kg oral daily, doxorubicin 5 mg/kg (subtherapeutic dose); FIG. 3
Method: Female 6-8 week old C57BL/6 mice were injected subcutaneously on day 0 with 50 μL of 3.75×10^4 viable B16F10 melanoma cells from ATCC (source of cell culture, Dr. I. J. Fidler). On day 14, tumors reached […] and animals were randomized for treatment. […] Mice were sacrificed on day 12.

Panc02 pancreatic cancer = test: Subcutaneous Panc02 pancreatic tumor growth; format: in vivo, mice; settings: from day 34-39; oral; p<0.05; FIG. 16
P815 liver metastasis = P815 liver metastasis in mice; format: in vivo; settings: oral 200 mg/kg; p<0.05; FIG. 9 and 10
Method: The syngeneic tumor P815 is a DBA/2 (H-2^d)-derived mastocytoma obtained from ATCC (TIB64). P815 cells were grown in DMEM containing 10% fetal bovine serum. At day 0, 50 μL of 5×10^5 viable P815 cells were subcutaneously injected to produce localized tumors in 6- to 8-week old DBA/2 mice. The animals were then serially monitored by manual palpation for evidence of tumor. […] Mice were sacrificed around day 23 (depending on the experiment). Serial tumor volume was obtained by bi-dimensional diameter measurements with calipers, using the formula 0.4 (a×b^2) where “a” was the major tumor diameter and “b” the minor perpendicular diameter. Tumors were palpable, in general, 3-5 days post-inoculation.
It is known that P815 cells have the capacity to metastasize to the liver.

[4] = system: Panc02 pancreatic adenocarcinoma; test: Orthotopic Panc02 pancreatic cancer model, survival; format: in vivo; settings: C57BL/6 mice; gemcitabine i.p. 50 mg/kg once a week, Compound XV oral 200 mg/kg daily; control 50 days; FIG. 4
Method: Syngeneic Panc02 is a pancreatic adenocarcinoma tumor cell line obtained from NCI (0507232). Panc02 cells are positive for Ki-Ras, p53, HerNEU and CDK. Panc02 were grown in RPMI-1640 containing 10% fetal bovine serum. At day 0, 50 μL of 5×10^5 viable Panc02 cells were injected into the tail of the pancreas in 6- to 8-week old C57BL/6 mice. Mice were then treated every day with oral administration of vehicle (saline, negative control), or Compound XV and with intraperitoneal injection of gemcitabine (50 mg/kg) once a week starting at day 8.

| SMILES | TGF-β induced EMT (HK-2 cells) | CTGF transcript expression (HK-2 cells) | collagen 1 transcript expression (HK-2 cells) | basal expression of CTGF (HK-2 cells) | basal expression of collagen 1 (HK-2 cells) | P815 tumor growth (P815 mastocytoma; oral 200 mg/kg, FIG. 7 and 8) | inhibition of TGF-induced CTGF production (CTGF production [1]) | inhibition at 200 µM (CTGF production [2]; 200 μM) | IL-12 (IL-12 production) | tumor growth T/C [3] | efficacy on primary tumor CT-26 (single agent) (CT-26WT colon tumor) | efficacy on primary tumor LL/2 (single agent) (LL/2 lung tumor) | reduction of primary tumor volume compared to the control (B16F10 melanoma cells) | tumor growth Treated/Control (T/C) (Panc02 pancreatic cancer) | P815 tumor growth (P815 mastocytoma; DBA/2 mice, oral 40-200 mg/kg every day, FIG. 6) | reduction of mice with liver metastasis (P815 liver metastasis) | inhibition at 500 µM (CTGF production [2]; 500 μM) | median survival [4] |
| --- | --- | --- | --- | --- | --- | --- | --- | --- | --- | --- | --- | --- | --- | --- | --- | --- | --- | --- |
| CCCCCc1cccc(CC(=O)[O-])c1.[Na+] [Compound I, Sodium Salt of (3-pentylphenyl)Acetic Acid] | significant inhibition | reduction | reduction | reduction | reduction | significant reduction (p<0.05) | significant (p<0.05) inhibition | 54% | 54 pg/mL |  |  |  |  |  |  |  |  |  |
| O=P1(N(CCCl)CCCl)NCCCO1 (centres unmarked) [Cyclophosphamide, cyclophosphamide] |  |  |  |  |  |  |  |  |  | 42-78% |  |  |  |  |  |  |  |  |
| CCCCCCCCCC(=O)[O-].[Na+] [Sodium decanoate] | significant inhibition | reduction | reduction | reduction | reduction | significant reduction (p<0.05) |  |  | 50 pg/mL |  | weak efficacy | weak efficacy | around 25% | 60-70% | significant reduction (p<0.05) | 50% | 51% |  |
| Nc1ccn([C@@H]2O[C@H](CO)[C@@H](O)C2(F)F)c(=O)n1 [gemcitabine, reference compound] |  |  |  |  |  |  |  |  |  |  |  | weak efficacy |  |  |  |  |  | 68.5 days |
